According to ChEMBL document CHEMBL3826976, “New Insights into Human 17β-Hydroxysteroid Dehydrogenase Type 14: First Crystal Structures in Complex with a Steroidal Ligand and with a Potent Nonsteroidal Inhibitor” (J Med Chem, 2016):

Molecular target: T1, 17-beta-hydroxysteroid dehydrogenase 14 (Homo sapiens) (UniProt Q9BPX1)
T1 sequence (whole entry): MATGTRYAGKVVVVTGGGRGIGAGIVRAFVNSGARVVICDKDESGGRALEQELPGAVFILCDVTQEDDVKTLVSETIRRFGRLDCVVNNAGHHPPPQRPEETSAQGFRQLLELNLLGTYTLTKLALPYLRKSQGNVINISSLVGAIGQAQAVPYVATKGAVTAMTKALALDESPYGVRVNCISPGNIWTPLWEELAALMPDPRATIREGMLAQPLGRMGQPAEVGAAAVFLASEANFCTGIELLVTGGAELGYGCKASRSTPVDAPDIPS
Description: Binding affinity to human 17-beta-HSD14 assessed as change in melting temperature at 0.25 mM by thermal shift assay

ΔTm	Structure (SMILES)
1.5 °C	C[C@]12CC[C@@H]3c4ccc(O)cc4CC[C@H]3[C@@H]1CCC2=O
1.5 °C	C[C@]12CC[C@@H]3c4ccc(O)cc4CC[C@H]3[C@@H]1CC[C@@H]2O
